IC50 data for 14 compounds are collected here from US7211572B2 (Japan Tobacco Inc., priority 2003, dated 2007).

Where a name gives a salt, the structure may show the parent alone.

The experiment addresses T1, HIV integrase (Human immunodeficiency virus type 1 group M subtype B, UniProt P12497, F1332H).
T1 construct: HIV integrase full length gene; made in house; host or cells: Escherichia coli BL21(DE3), plasmid pET21a-INH
The experiment is described as follows: Determination of enzyme (HIV integrase) inhibitory activity. The settings on record: recombinant HIV integrase (F185H), strand transfer ELISA, absorbance at 450 nm. Format: biochemical. Put shortly: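 Full-length integrase with F185H, expressed in E. coli and purified, was reacted for 60 min at 37 °C with compound and biotinylated donor DNA bound to streptavidin plates. Target DNA was added for 10 min, then anti-digoxigenin-peroxidase detection at A450; IC50 from % inhibition versus enzyme-free blank.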
Background: ELISA stands for enzyme-linked immunosorbent assay.
Broadly, the IC50 is the concentration at which inhibition is half-maximal. In the case of `O=c1c([S+]([O-])c2ccccc2)cn2ccn(Cc3cccc(Cl)c3)c(=O)c2c1O` (centres unmarked) [Example 236, 7-benzenesulfinyl-2-(3-chlorobenzyl)-9-hydroxy-2H-pyrido[1,2-a]pyrazine-1,8-dione], the IC50 was 10 to 100 nM.

As to `CCC(=O)c1cn2ccn(Cc3cccc(Cl)c3)c(=O)c2c(O)c1=O` [Example 205, 2-(3-chlorobenzyl)-9-hydroxy-7-propionyl-2H-pyrido[1,2-a]pyrazine-1,8-dione hydrochloride], the IC50 is less than 10 nM.

On to `CS(=O)(=O)Nc1cn2ccn(Cc3cccc(Cl)c3)c(=O)c2c(O)c1=O` [Example 203, N-[2-(3-chlorobenzyl)-9-hydroxy-1,8-dioxo-1,8-dihydro-2H-pyrido[1,2-a]pyrazin-7-yl]methanesulfonamide], for which the IC50 is less than 10 nM. For `CC(=O)c1cc(=O)c(O)c2n1CCN(Cc1ccc(Cl)c(Cl)c1)C2=O` [Example 35, 6-acetyl-2-(3,4-dichlorobenzyl)-9-hydroxy-3,4-dihydro-2H-pyrido[1,2-a]pyrazine-1,8-dione] the value was 10 to 100 nM; for `CC(C)(C)COC(=O)c1cn2ccn(Cc3cccc(Cl)c3)c(=O)c2c(O)c1=O` [Example 159, 2,2-dimethylpropyl 2-(3-chlorobenzyl)-9-hydroxy-1,8-dioxo-1,8-dihydro-2H-pyrido[1,2-a]pyrazine-7-carboxylate], 10 to 100 nM; for `O=C1c2c(O)c(=O)c3ccccc3n2CCN1Cc1cccc(Cl)c1` [Example 111, 3-(3-chlorobenzyl)-5-hydroxy-2,3-dihydro-1H-pyrazino[1,2-a]quinoline-4,6-dione], 10 to 100 nM. As for `O=c1c(-c2ccccn2)cn2ccn(Cc3cccc(Cl)c3)c(=O)c2c1O` [Example 117, 2-(3-chlorobenzyl)-9-hydroxy-7-(pyridin-2-yl)-2H-pyrido[1,2-a]pyrazine-1,8-dione hydrochloride], the IC50 is less than 10 nM. As to `O=C1c2c(O)c(=O)cc(CCO)n2CCN1Cc1ccc(Cl)c(Cl)c1` [Example 83, 2-(3,4-dichlorobenzyl)-9-hydroxy-6-(2-hydroxyethyl)-3,4-dihydro-2H-pyrido[1,2-a]pyrazine-1,8-dione], the IC50 fell in the range of 10 to 100 nM. The same measure for `O=c1ccn2ccn(CCCc3ccc(Cl)c(Cl)c3)c(=O)c2c1O` [Example 79, 2-[3-(3,4-dichlorophenyl)propyl]-9-hydroxy-2H-pyrido[1,2-a]pyrazine-1,8-dione]: 10 to 100 nM; for `O=C1c2c(O)c(=O)c(-c3nccs3)cn2CCN1Cc1ccc(OCc2ccccc2)c(Cl)c1` [Example 356, 2-(4-benzyloxy-3-chlorobenzyl)-9-hydroxy-7-(thiazol-2-yl)-3,4-dihydro-2H-pyrido[1,2-a]pyrazine-1,8-dione hydrochloride]: 10 to 100 nM. For `CCCOc1cc(Cl)cc(CN2CCn3cc(-c4nccs4)c(=O)c(O)c3C2=O)c1` [Example 396, 2-(3-chloro-5-propoxybenzyl)-9-hydroxy-7-(thiazol-2-yl)-3,4-dihydro-2H-pyrido[1,2-a]pyrazine-1,8-dione hydrochloride] the value was 10 to 100 nM; for `CC(C)C(=O)c1cn2ccn(Cc3ccc(F)cc3)c(=O)c2c(O)c1=O` [Example 345, 2-(4-fluorobenzyl)-9-hydroxy-7-isobutyryl-2H-pyrido[1,2-a]pyrazine-1,8-dione hydrochloride], less than 10 nM; for `CS(=O)(=O)CCC1CN(Cc2ccc(Cl)c(Cl)c2)C(=O)c2c(O)c(=O)ccn21` (centres unmarked) [Example 32, 2-(3,4-dichlorobenzyl)-9-hydroxy-4-(2-methanesulfonylethyl)-3,4-dihydro-2H-pyrido[1,2-a]pyrazine-1,8-dione], 10 to 100 nM. The same measure for `O=C(Cc1ccccc1)Nc1cn2ccn(Cc3cccc(Cl)c3)c(=O)c2c(O)c1=O` [Example 243, N-[2-(3-chlorobenzyl)-9-hydroxy-1,8-dioxo-1,8-dihydro-2H-pyrido[1,2-a]pyrazin-7-yl]-2-phenylacetamide]: less than 10 nM.
